In PMC8991007, “Benzylic Dehydroxylation of Echinocandin Antifungal Drugs Restores Efficacy against Resistance Conferred by Mutated Glucan Synthase” (Journal of the American Chemical Society, 2022):
Like-named read-outs stand apart in the source and are kept apart here. *1 amine or outer side, *2 acyl side, *3 side chain or, on linkers, in order; H or OH if unused. Where a SMILES comes first, the peptide text is derived from it. Bridges are numbered along the chain shown (N, C = ends). [ ]: non-standard residue; d: D form. The star is where a group is joined. Orn(4R-OH,5R-OCH2CH2NMe3+) = C[N+](C)(C)CCO[C@@H](N[*:3])[C@H](O)C[C@H](N[*:1])C(=O)[*:2]; pTerphenylCO(4''-OnC5H11) = CCCCCOc1ccc(-c2ccc(-c3ccc(C(=O)*)cc3)cc2)cc1; hTyr(3S-OH,4S-OH) = N[C@H](C(=O)O)[C@H](O)[C@@H](O)c1ccc(O)cc1; Pro(3S-OH,4S-Me) = C[C@H]1CN[C@H](C(=O)O)[C@H]1O; Hyp = O=C(O)[C@@H]1C[C@@H](O)CN1

Columns and labels:
C. albicans = assay: Minimum inhibitory concentration broth double-dilution assay; type: cell-based, Candida albicans; conditions: 24 h, 30 °C
Experimental: (§1) The antifungal activities of compounds 1 and 2 were evaluated against a panel of 50 strains of C. albicans and C. glabrata (Table S4), including echinocandin-resistant strains that were constructed by introducing mutations within and near the defined hotspots in the FKS1 and/or FKS2 genes.[27] To evaluate antifungal activity, we determined MIC values. The MIC was defined as the lowest drug concentration that led to turbidity (measured at 600 nm) of less than or equal to 35% of that of the untreated culture. As controls, we tested CSF, MCF, ANF, and RZF.
(§2) All of the tested compounds were dissolved in anhydrous DMSO to a concentration of 5 mg/mL. Candida strains were streaked from a glycerol stock onto YPAD agar plates and grown for 24 h at 30 °C. Colonies were suspended in 1 mL of PBS and diluted to an O.D. of 0.01 at 600 nm with YPAD broth and added into flat-bottom 96-well microplates (Corning) containing a gradient of twofold dilutions per tested compound with concentrations ranging from 64 to 0.0009 μg/mL. Control wells with no drug and blank wells without yeast cells containing YPAD only were also prepared. […] Each concentration was tested in triplicate, and results were confirmed by at least two independent sets of experiments.

C. glabrata = assay: as above; type: cell-based, Candida glabrata; conditions: 24 h, 30 °C
Experimental: as §1, §2

HCT-116 = assay: cells; type: cell-based; conditions: Homo sapiens; HCT-116 expressing GFP, 24 h, mean ± SD; read-out: IC50 (cell viability)
Experimental: (§3) In this analysis, we used HCT-116, a human colorectal carcinoma cell line; UACC-62, a human melanoma cell line; Hs 578T, a human mammary gland carcinoma cell line, and SF-295, a human glioblastoma cell line. […] The highest concentration of the echinocandins used for the cell viability tests was determined based on the reported maximal plasma concentrations (Cmax) of ANF and RZF measured in humans. A Cmax of approximately 7 μM was measured during a pharmacokinetic study of ANF in patients with candidemia or invasive candidiasis who were treated with a 200 mg loading dose on day 1, followed by a daily 100 mg maintenance dose.[64]
(§4) Human cell lines HCT-116, UACC-62, Hs 578T, and SF-295 were obtained from the Life Sciences Core Facilities of the Nancy & Stephen Grand Israel National Center for Personalized Medicine. Cell lines were grown in an RPMI medium (Gibco, cat. no. 21875-034) supplemented with 10% fetal calf serum (Biological Industries, cat. no. 04-007-1A), Pen/Strep (Biological Industries, cat. no. 03-031-1B), and glutamine (Biological Industries, cat. no. 03-020-1B). GFP was introduced into cells using TALENS according to a previously reported protocol.[73] GFP cells were selected by FACS and propagated.
(§5) Assay-ready plates were designed using in-house software (CHEMPION, INCPM software development team) and prepared in 384-well Greiner plates (cat. no. 781091) using an Echo 555 Acoustic Liquid Handler (Labcyte). The final DMSO concentration in all samples was 0.4%. Prior to the experiment, cells were trypsinized and counted using a Countess cytometer. Cells were then diluted to 40,000 cells/mL in a fresh medium. Cells (50 μL/well; 2000 cells/well) were then dispensed with a Thermo Combi dispenser into plates containing predispensed compounds. After 30 min at room temperature to ensure uniform adherence of cells, the plates were moved to an automated incubator (Liconic STX44) and incubated at 37 °C. An automated confocal microscope with a 4× S Fluor lens (Molecular Devices ImageExpress) was used to acquire images of GFP-expressing cells after 24 h of incubation. Images were then analyzed using MetaExpress with a custom protocol (Custom Module Editor), and data were annotated and normalized using Genedata Screener software. Final normalized data were then loaded into CDD Vault software for comparative data visualization.

UACC-62 = assay: cells; type: cell-based; conditions: Homo sapiens; UACC-62 expressing GFP, 24 h, mean ± SD; read-out: IC50 (cell viability)
Experimental: as §3, §4, §5

Hs 578T = assay: Phenotypic viability assay of GFP reporter cell line; type: cell-based; conditions: Homo sapiens; Hs 578T expressing GFP, 24 h, mean ± SD
Experimental: as §3, §4, §5

THLE-2 cells = assay: cells; type: cell-based; conditions: Homo sapiens
Experimental: The effects of ANF and RZF and their dehydroxylated derivatives 1 and 2 on the viability of human cells were further evaluated in an assay with THLE-2 cells, which are a transformed human liver epithelial cell line. These cells express phenotypic characteristics of normal adult liver epithelial cells.
THLE-2 cells (ATCC, cat. no. CRL2706) were cultured in 384-well plates coated with BEBM (Lonza, cat. no CC3170) containing 100 μg/mL BSA, 1:100 fibronectin (Sigma, cat. no. F0895), and a 1:100 PureCol EZ Gel Solution (Sigma, cat. no. 5074) for 50–60 min at 37 °C. THLE-2 cells were plated at a density of 2.5 × 10^3 cells/well in the coated plates in a total volume of 20 μL. Culture media were BEGM supplemented with 5 ng/mL hEGF (Sigma, cat. no. E5036), 70 ng/mL phosphoethanolamine (Sigma, cat. no. P0503), and 10% fetal bovine serum. Plates were incubated overnight at 37 °C, 95% humidity, and 5% CO2. The culture medium was replaced with 50 μL of a fresh medium, and compounds were applied to the cells in triplicate. Plates were cultured for another 72 h, and ATP was quantified using a CellTiter-Glo kit (Promega #G7573) according to the manufacturer’s protocol. The luminescence signal was detected using a PHERAstar FS (BMG Labtech).

`CCCCCOc1ccc(-c2ccc(-c3ccc(C(=O)N[C@H]4C[C@@H](O)[C@@H](OCC[N+](C)(C)C)NC(=O)[C@@H]5[C@@H](O)[C@@H](C)CN5C(=O)[C@H]([C@@H](C)O)NC(=O)[C@H]([C@H](O)[C@@H](O)c5ccc(O)cc5)NC(=O)[C@@H]5C[C@@H](O)CN5C(=O)[C@H]([C@@H](C)O)NC4=O)cc3)cc2)cc1` [RZF, rezafungin] ({pTerphenylCO(4''-OnC5H11)}-[Orn(4R-OH,5R-OCH2CH2NMe3+)]T[Hyp][hTyr(3S-OH,4S-OH)]T[Pro(3S-OH,4S-Me)]; lactam 1-C) showed an MIC (C. albicans; #1 C. albicans Sc5314) of 0.015 µg/mL, an MIC (C. albicans; #2 C. albicans DPL1015 (DP-A15)) of 0.25 µg/mL and an MIC (C. albicans; #3 C. albicans DPL1016 (DP-A15-10)) of 4 µg/mL. It also gave an MIC (C. albicans; #4 C. albicans T-2068 (DP-C42)) of 2 µg/mL, an MIC (C. albicans; #5 C. albicans T-2069 (DP-85)) of 8 µg/mL and an MIC (C. albicans; #6 C. albicans (DP-89)) of 8 µg/mL. The MIC (C. albicans; #7 C. albicans T-2076 (DP-194)) was 1 µg/mL, the MIC (C. albicans; #8 C. albicans T-2077 (DP-205)) was 1 µg/mL and the MIC (C. glabrata; #9 C. glabrata EF1620) was 0.015 µg/mL. For the same compound, the MIC (C. glabrata; #10 C. glabrata TGL00277) was 64 µg/mL, the MIC (C. glabrata; #11 C. glabrata TGL00275) was 16 µg/mL and the MIC (C. glabrata; #12 C. glabrata CST78) was 0.008 µg/mL. It also gave an MIC (C. glabrata; #13 C. glabrata TGL00265) of 16 µg/mL, an MIC (C. glabrata; #14 C. glabrata TGL00264) of 32 µg/mL and an MIC (C. glabrata; #15 C. glabrata TGL00263) of 32 µg/mL. It also gave an MIC (C. glabrata; #16 C. glabrata TGL00065) of over 64 µg/mL, an MIC (C. glabrata; #17 C. glabrata CST34) of 0.008 µg/mL and an MIC (C. glabrata; #18 C. glabrata TGL00258) of over 64 µg/mL. The MIC (C. glabrata; #19 C. glabrata TGL00256) was 4 µg/mL, the MIC (C. glabrata; #20 C. glabrata TGL00107) was over 64 µg/mL and the MIC (C. glabrata; #21 C. glabrata TGL00056) was over 64 µg/mL. It also gave an MIC (C. glabrata; #22 C. glabrata M12) of 0.008 µg/mL, an MIC (C. glabrata; #23 C. glabrata TGL00270) of over 64 µg/mL and an MIC (C. glabrata; #24 C. glabrata TGL00269) of 1 µg/mL. The MIC (C. glabrata; #25 C. glabrata TGL00268) was over 64 µg/mL, the MIC (C. glabrata; #26 C. glabrata TGL00268) was over 64 µg/mL and the MIC (C. glabrata; #27 C. glabrata EB0911) was 0.015 µg/mL. The MIC (C. glabrata; #28 C. glabrata TGL00261) was 16 µg/mL, the MIC (C. glabrata; #29 C. glabrata TGL00109) was 64 µg/mL and the MIC (C. glabrata; #30 C. glabrata TGL00259) was over 64 µg/mL. For the same compound, the IC50 (HCT-116) was over 40 µM, the IC50 (UACC-62) was over 40 µM and the IC50 (Hs 578T) was over 40 µM. For the same compound, the IC50 (THLE-2 cells; THLE-2, 72 h of incubation, ranges for ANF and 1 and for RZF and 2 stated jointly, read-out: IC50 value (THLE-2 viability)) was 36 to 77 µM and the IC50 (THLE-2 cells; THLE-2, 72 h, ATP luminescence, read-out: IC50 (cell viability)) was 76.6 ± 4.8 µM.
